B1: human EXT1 (exostosin-1), N-terminally truncated, aa29-aa746 (enzyme, UniProt Q16394 29-746, looked up)
chain: RASRSHSRREEHSGRNGLHHPSPDHFWPRFPDALRPFVPWDQLENEDSSVHISPRQKRDANSSIYKGKKCRMESCFDFTLCKKNGFKVYVYPQQKGEKIAESYQNILAAIEGSRFYTSDPSQACLFVLSLDTLDRDQLSPQYVHNLRSKVQSLHLWNNGRNHLIFNLYSGTWPDYTEDVGFDIGQAMLAKASISTENFRPNFDVSIPLFSKDHPRTGGERGFLKFNTIPPLRKYMLVFKGKRYLTGIGSDTRNALYHVHNGEDVVLLTTCKHGKDWQKHKDSRCDRDNTEYEKYDYREMLHNATFCLVPRGRRLGSFRFLEALQAACVPVMLSNGWELPFSEVINWNQAAVIGDERLLLQIPSTIRSIHQDKILALRQQTQFLWEAYFSSVEKIVLTTLEIIQDRIFKHISRNSLIWNKHPGGLFVLPQYSSYLGDFPYYYANLGLKPPSKFTAVIHAVTPLVSQSQPVLKLLVAAAKSQYCAQIIVLWNCDKPLPAKHRWPATAVPVVVIEGESKVMSSRFLPYDNIITDAVLSLDEDTVLSTTEVDFAFTVWQSFPERIVGYPARSHFWDNSKERWGYTSKWTNDYSMVLTGAAIYHKYYHYLYSHYLPASLKNMVDQLANCEDILMNFLVSAVTKLPPIKVTQKKQYKETMMGQTSRASRWADPDHFAQRQSCMNTFASWFGYMPLIHSQMRLDPVLFKDQVSILRKKYRDIERL
modifications: N-linked glycan at Asn330
notes: exostosin-1 (EXT1), human, residues 29-746, lacking the N-terminal transmembrane helix; Only obtained by co-expression with EXT2; Model built for aa89-aa728 with some loops missing; also called EXT1 WT; not shown: secreted alkaline phosphatase, N-terminal, cleaved; 8x His, C-terminal, kept
B2: human EXT2 (exostosin-2), N-terminally truncated, aa47-aa718 (enzyme, UniProt Q93063 47-718, looked up)
chain: PHSIESSNDWNVEKRSIRDVPVVRLPADSPIPERGDLSCRMHTCFDVYRCGFNPKNKIKVYIYALKKYVDDFGVSVSNTISREYNELLMAISDSDYYTDDINRACLFVPSIDVLNQNTLRIKETAQAMAQLSRWDRGTNHLLFNMLPGGPPDYNTALDVPRDRALLAGGGFSTWTYRQGYDVSIPVYSPLSAEVDLPEKGPGPRQYFLLSSQVGLHPEYREDLEALQVKHGESVLVLDKCTNLSEGVLSVRKRCHKHQVFDYPQVLQEATFCVVLRGARLGQAVLSDVLQAGCVPVVIADSYILPFSEVLDWKRASVVVPEEKMSDVYSILQSIPQRQIEEMQRQARWFWEAYFQSIKAIALATLQIINDRIYPYAAISYEEWNDPPAVKWGSVSNPLFLPLIPPQSQGFTAIVLTYDRVESLFRVITEVSKVPSLSKLLVVWNNQNKNPPEDSLWPKIRVPLKVVRTAENKLSNRFFPYDEIETEAVLAIDDDIIMLTSDELQFGYEVWREFPDRLVGYPGRLHLWDHEMNKWKYESEWTNEVSMVLTGAAFYHKYFNYLYTYKMPGDIKNWVDAHMNCEDIAMNFLVANVTGKAVIKVTPRKKFKCPECTAIDGLSLDQTHMVERSECINKFASVFGTMPLKVVEHRADPVLYKDDFPEKLKSFPNIGSL
modifications: N-linked glycan at Asn637
notes: exostosin-2 (EXT2), human, residues 47-718, lacking the N-terminal transmembrane helix; Only obtained by co-expression with EXT1; Model built for aa78-aa702 with some loops missing; also called EXT2 WT; not shown: secreted alkaline phosphatase, N-terminal, cleaved; 8x His, C-terminal, kept

How the values were obtained:
[1] = biological target: T1, EXT1-EXT2 complex (GlcNAc-T sites of EXT1 and EXT2) (Homo sapiens, UniProt Q16394+Q93063); assay: FACE glycosyl transfer assay; format: biochemical; details: acceptor Alexa Fluor 430-labelled dp8 5 uM; 1 mM UDP-GlcNAc; 10 mM MnCl2; pH 7.2; 30 C; GlcNAc-T domains of EXT1 and EXT2
T1 construct: same complex as P1; separate entry only because each chain has its own GlcNAc-T site; 1:1 heterodimer (EXT1 aa29-746, EXT2 aa47-718), C-terminal 8xHis kept, alkaline phosphatase fusion cut off with TEV; FreeStyle 293-F
T1 sequence (Q16394 29-746): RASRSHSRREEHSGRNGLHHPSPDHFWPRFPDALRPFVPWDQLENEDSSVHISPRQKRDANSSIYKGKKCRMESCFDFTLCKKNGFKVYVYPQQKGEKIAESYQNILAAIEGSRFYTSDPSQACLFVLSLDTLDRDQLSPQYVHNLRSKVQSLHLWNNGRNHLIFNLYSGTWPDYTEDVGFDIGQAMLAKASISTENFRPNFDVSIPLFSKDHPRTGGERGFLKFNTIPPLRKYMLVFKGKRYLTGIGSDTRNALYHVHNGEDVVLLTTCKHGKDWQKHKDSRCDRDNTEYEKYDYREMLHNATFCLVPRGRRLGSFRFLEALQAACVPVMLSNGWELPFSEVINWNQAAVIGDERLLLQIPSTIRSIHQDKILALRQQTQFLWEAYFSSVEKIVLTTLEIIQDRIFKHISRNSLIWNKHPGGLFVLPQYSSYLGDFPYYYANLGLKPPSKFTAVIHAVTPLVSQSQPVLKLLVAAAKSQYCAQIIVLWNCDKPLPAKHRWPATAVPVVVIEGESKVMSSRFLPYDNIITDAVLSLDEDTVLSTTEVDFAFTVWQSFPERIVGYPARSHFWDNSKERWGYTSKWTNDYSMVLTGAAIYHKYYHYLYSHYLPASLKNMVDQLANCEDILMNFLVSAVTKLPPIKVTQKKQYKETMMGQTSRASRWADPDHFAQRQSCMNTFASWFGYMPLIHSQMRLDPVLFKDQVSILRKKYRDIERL
T1 sequence (Q93063 47-718): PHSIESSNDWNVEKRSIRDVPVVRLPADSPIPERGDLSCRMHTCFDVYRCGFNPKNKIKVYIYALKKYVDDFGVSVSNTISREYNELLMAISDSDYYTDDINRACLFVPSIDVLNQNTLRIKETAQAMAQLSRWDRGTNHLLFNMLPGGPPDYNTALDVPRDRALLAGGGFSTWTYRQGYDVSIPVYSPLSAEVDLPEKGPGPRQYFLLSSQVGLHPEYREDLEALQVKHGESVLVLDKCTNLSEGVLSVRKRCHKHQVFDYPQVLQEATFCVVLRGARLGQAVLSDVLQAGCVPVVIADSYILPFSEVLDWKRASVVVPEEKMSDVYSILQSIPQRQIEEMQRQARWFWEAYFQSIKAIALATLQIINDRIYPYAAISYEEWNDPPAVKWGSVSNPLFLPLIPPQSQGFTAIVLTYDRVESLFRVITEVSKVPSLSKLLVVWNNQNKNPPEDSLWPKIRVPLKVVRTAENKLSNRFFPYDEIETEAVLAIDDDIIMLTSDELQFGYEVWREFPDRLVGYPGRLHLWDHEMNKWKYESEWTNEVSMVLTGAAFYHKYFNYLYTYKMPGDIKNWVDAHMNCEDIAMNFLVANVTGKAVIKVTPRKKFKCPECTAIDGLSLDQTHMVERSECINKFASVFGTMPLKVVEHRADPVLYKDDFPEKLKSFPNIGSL

[2] = biological target: T2, EXT1-EXT2 complex (EXT1 GlcA-T site) (Homo sapiens, UniProt Q16394); assay: FACE glycosyl transfer assay; format: biochemical; details: acceptor Alexa Fluor 430-labelled dp9 5 uM; 1 mM UDP-GlcA; 10 mM MnCl2; pH 7.2; 30 C; EXT1 GlcA-T domain
T2 construct: 1:1 heterodimer of Golgi-luminal parts, transmembrane helix removed (EXT1 aa29-746, EXT2 aa47-718), C-terminal 8xHis kept, secreted alkaline phosphatase fusion cut off with TEV; co-expressed in FreeStyle 293-F; about 160 kDa; with Exostosin-2
T2 sequence (Q16394 29-746): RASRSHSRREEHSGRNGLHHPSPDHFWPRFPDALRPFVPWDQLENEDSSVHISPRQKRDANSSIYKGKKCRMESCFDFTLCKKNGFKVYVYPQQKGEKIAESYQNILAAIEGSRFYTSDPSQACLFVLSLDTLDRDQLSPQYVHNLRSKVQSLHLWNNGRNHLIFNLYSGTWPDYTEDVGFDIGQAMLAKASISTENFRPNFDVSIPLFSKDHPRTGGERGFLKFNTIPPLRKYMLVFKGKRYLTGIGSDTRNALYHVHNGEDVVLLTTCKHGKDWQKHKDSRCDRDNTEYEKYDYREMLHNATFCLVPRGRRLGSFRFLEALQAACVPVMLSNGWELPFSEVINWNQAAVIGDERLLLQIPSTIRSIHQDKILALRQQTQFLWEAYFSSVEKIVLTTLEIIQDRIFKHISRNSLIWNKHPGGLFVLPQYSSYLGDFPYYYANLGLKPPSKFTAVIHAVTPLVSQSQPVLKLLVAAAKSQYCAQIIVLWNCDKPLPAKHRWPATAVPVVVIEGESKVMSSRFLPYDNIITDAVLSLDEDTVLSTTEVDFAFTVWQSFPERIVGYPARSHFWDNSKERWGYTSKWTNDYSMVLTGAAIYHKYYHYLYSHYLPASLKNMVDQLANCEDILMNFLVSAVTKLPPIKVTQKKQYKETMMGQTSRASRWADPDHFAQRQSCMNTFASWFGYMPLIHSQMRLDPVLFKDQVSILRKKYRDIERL
T2 sequence (Q93063 47-718 partner): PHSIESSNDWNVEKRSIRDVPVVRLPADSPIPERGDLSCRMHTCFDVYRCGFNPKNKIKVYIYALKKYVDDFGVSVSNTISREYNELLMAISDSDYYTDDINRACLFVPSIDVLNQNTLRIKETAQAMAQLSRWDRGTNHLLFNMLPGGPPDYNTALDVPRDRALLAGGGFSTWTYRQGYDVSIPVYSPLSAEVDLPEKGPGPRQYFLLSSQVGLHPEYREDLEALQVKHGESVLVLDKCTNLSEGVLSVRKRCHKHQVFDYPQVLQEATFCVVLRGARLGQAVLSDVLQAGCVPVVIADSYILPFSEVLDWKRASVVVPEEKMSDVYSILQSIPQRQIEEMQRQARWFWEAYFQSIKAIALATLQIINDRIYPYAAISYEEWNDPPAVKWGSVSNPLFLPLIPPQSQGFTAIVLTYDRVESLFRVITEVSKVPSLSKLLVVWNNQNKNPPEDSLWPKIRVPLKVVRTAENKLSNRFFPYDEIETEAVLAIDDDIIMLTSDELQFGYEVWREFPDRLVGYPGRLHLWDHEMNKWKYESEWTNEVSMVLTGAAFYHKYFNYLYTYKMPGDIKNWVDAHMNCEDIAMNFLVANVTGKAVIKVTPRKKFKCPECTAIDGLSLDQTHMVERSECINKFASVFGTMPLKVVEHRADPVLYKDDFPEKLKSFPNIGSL

[3] = biological target: T2, EXT1-EXT2 complex (EXT1 GlcA-T site); assay: cryo-EM structure, […] A; format: binding; details: EXT1 GlcA-T active site; UDP-GlcA, UDP-GlcNAc and MnCl2 1 mM each added, only UDP seen; pH 7.2
[4] = biological target: B2; assay: cryo-EM structure; 0.4 mg/mL purified, co-expressed EXT1-EXT2 with 1 mM UDP-GlcNAc, 1 mM UDP-GlcA and 1 mM MnCl2; single-particle analysis, 2.8 Å; details: both partners purified
[5] = biological target: T3, human EXT1 aa29-aa746 D162N/D164N (human, UniProt Q16394 29-746, D162N | D164N); assay: negative stain EM; purified complex diluted to 0.02 mg/mL in buffer A (50 mM Tris pH 7.8, 150 mM NaCl); mica-carbon flotation; details: both partners purified
T3 construct: exostosin-1 (EXT1), human, residues 29-746, with point mutations in the GlcA-T domain; also called EXT1 D162N/D164N; source: FreeStyle 293-F cells, co-expressed with wild-type EXT2, purified as the wild-type complex; not shown: secreted alkaline phosphatase, N-terminal, cleaved; 8x His, C-terminal, kept
T3 sequence (looked up): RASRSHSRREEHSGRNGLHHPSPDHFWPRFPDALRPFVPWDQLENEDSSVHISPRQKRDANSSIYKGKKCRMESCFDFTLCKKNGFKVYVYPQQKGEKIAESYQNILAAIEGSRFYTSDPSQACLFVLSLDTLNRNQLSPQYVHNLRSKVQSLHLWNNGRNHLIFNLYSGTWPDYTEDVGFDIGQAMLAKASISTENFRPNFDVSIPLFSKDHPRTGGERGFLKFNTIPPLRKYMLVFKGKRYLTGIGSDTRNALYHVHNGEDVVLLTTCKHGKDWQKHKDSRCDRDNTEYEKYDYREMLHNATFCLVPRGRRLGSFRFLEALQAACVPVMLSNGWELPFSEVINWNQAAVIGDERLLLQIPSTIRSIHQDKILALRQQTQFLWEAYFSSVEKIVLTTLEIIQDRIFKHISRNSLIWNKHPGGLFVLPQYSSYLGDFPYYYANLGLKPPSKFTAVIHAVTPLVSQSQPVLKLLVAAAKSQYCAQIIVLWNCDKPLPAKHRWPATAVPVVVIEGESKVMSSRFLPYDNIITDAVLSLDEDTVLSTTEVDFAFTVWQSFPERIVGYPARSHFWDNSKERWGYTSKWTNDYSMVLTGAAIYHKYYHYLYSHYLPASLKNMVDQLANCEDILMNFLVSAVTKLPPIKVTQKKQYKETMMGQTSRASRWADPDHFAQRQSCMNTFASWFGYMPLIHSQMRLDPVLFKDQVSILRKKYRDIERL

[6] = biological target: B1; assay: cryo-EM structure; 0.4 mg/mL purified, co-expressed EXT1-EXT2 with 1 mM UDP-GlcNAc, 1 mM UDP-GlcA and 1 mM MnCl2; single-particle analysis, 2.8 Å; details: both partners purified

Molecule: CC(=O)N[C@H]1[C@@H](OP(=O)(O)OP(=O)(O)OC[C@H]2O[C@@H](n3ccc(=O)[nH]c3=O)[C@H](O)[C@@H]2O)O[C@H](CO)[C@@H](O)[C@@H]1O [UDP-GlcNAc]
FACE glycosyl transfer assay [1]: the transfer of a GlcNAc residue onto dp8 led to a slower migration rate

Molecule: O=C(O)[C@H]1O[C@H](OP(=O)(O)OP(=O)(O)OC[C@H]2O[C@@H](n3ccc(=O)[nH]c3=O)[C@H](O)[C@@H]2O)[C@H](O)[C@@H](O)[C@@H]1O [UDP-GlcA]
FACE glycosyl transfer assay [2]: the addition of a GlcA moiety onto dp9 enhanced the migration rate

Molecule: O=c1ccn([C@@H]2O[C@H](COP(=O)(O)OP(=O)(O)O)[C@@H](O)[C@H]2O)c(=O)[nH]1 [UDP]
cryo-EM structure, 2.8 A [3]: we found an additional EM density that fits a UDP ligand

Molecule: B1
stoichiometry N [4]: 1

Molecule: B2
binding result [5]: binds | binding result [6]: binds
